The inhibition is the drop in the measured response relative to a control, in per cent.

From patent US10189785B2, “Heterocyclic compound” (TAKEDA PHARMACEUTICAL COMPANY LIMITED, priority 2015, dated 2019) come the findings set out here.

Test [1] deals with lung adenocarcinoma cell line HCC4006. Briefly: HCC4006 cell growth inhibition test (Test Example 2). The test is classed as cell-based. The note with it: Homo sapiens, 120 h; 1 μM test compound; HCC4006 cells, culture for 5 days, CellTiter-Glo; read-out: Rate of inhibition (%) at 1 μM. In outline:
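HCC4006 cells in RPMI-1640 with 10% FBS were seeded at 250 cells/well and dosed with compound the next day. After 5 days, viability was read by CellTiter-Glo luminescence. Percent inhibition was calculated against no-compound control and cell-free blank.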
On the technique in general: Cellular ATP, detected with luciferase, serves as a proxy for viable cell number.

Test [2] concerns human leukemia cell line PL-21 cancer-bearing mice. The experiment in a line: Antitumor test using PL-21 cell (Test Example 3). The test is classed as in vivo, mouse. As for the experimental part: The compound of the present invention was evaluated for its antitumor effect on human leukemia cell line PL-21 cancer-bearing mice by the following method.
The human leukemia cell line PL-21 (JCRB) was transplanted to each 6-week-old Icr-scid female mouse (CLEA Japan Inc.) by the subcutaneous injection of 3.0×10^6 cells. The tumor size of successfully engrafted tumor was measured 13 days after the transplantation. The tumor volume was calculated according to the following expression: Tumor volume=Major axis×Minor axis×Minor axis×(½)
Individuals in which the volume of the engrafted tumor reached 100 to 150 mm^3 were selected and used in the experiment as groups each involving 5 or 6 individuals. A 0.5% methylcellulose suspension of each test compound was orally administered to each mouse using the dose (indicated by single dose), the number of doses and the dosing period shown in Table 5. The tumor sizes at the day before the start of the administration and one day after the completion of the administration were measured and the tumor volume was calculated.
The rate of tumor growth (T/C (%)) in the test compound administration group compared with a control administration group was calculated according to the following expression: T/C (%)=(Tumor volume after the completion of the administration of the test compound administration group−Tumor volume before the start of the administration of the test compound administration group)/(Tumor volume after the completion of the administration of the control administration group−Tumor volume before the start of the administration of the control administration group)×100

The target in test [3] is T1, SPT (SPT2-expressing membrane fraction: human SPT1, human SPT2 and human ssSPTa) (Homo sapiens, UniProt O15269+O15270).
T1 construct: Full-length human SPT1, human SPT2 and human ssSPTa used; made in house; host or cells: FreeStyle 293 cells (pcDNA3.1 vectors, cotransfection); crude membrane fraction used
T1 sequence (O15269 1-473): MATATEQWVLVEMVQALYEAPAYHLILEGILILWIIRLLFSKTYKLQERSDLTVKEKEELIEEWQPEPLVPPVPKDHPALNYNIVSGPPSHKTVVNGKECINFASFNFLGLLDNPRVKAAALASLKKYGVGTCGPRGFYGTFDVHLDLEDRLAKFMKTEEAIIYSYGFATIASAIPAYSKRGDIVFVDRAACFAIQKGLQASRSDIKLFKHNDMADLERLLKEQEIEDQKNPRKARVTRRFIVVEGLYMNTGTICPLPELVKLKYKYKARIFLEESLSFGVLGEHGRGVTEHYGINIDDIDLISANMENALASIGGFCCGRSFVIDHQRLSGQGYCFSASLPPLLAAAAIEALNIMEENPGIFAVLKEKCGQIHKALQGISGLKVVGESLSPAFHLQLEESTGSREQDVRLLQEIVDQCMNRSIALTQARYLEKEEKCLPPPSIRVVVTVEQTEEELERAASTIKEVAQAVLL
T1 sequence (O15270 1-562): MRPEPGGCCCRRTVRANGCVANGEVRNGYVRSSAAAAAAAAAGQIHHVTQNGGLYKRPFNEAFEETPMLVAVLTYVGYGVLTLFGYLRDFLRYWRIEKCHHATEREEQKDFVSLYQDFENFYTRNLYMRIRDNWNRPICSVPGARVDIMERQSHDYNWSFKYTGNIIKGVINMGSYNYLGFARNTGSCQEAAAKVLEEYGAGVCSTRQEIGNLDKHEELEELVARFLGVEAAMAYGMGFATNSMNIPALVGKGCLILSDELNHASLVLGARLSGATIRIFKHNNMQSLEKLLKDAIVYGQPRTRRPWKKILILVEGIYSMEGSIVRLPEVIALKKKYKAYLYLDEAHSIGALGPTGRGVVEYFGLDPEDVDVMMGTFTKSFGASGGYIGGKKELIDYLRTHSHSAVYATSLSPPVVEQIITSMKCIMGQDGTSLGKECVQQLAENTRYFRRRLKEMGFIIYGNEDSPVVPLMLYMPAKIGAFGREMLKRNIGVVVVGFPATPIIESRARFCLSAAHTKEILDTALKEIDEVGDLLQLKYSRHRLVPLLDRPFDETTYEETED
T1 sequence (Q969W0 1-71 partner): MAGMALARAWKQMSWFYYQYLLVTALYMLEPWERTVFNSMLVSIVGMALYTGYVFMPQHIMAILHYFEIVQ
Briefly: SPT enzyme inhibition test (Test Example 1). Format: biochemical. The note with it: read-out: Rate of inhibition (%) at 1 μM. In outline: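 Membrane fraction (100 μg/mL stock) of cells expressing human SPT1, SPT2 and ssSPTa was preincubated 60 min at RT with compound in 100 mM Hepes pH 8.0 containing EDTA, DTT and 0.01% BSA. Reaction ran 15 min at RT with 2 mM L-serine and 20 μM palmitoyl CoA (solution concentrations), then formic acid quench. Product measured by RapidFire mass spectrometry against a C17-sphinganine internal standard, giving % inhibition.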

Where [4] appears, read: 10 mg/kg orally, administered once every two days, 14 days.
Setting [5] is: 30 mg/kg orally, administered once every two days, 14 days.

For the molecule `Cn1nc(C(F)(F)F)cc1C(=O)N[C@@H]1CCN(C(=O)c2cc(Cl)c3nccnc3c2)C[C@@H]1c1ccccc1` [Example 81B, N-((3S,4R)-1-((8-Chloroquinoxalin-6-yl)carbonyl)-3-phenylpiperidin-4-yl)-1-methyl-3-(trifluoromethyl)-1H-pyrazole-5-carboxamide], the inhibition at 1 µM in test [1] amounted to 54%. In addition, the “T/C (%)” value in test [2] (10 mg/kg orally, administered every day for 3 days, 4-day drug holiday, 2 cycles) worked out at 16%; in test [2] (setting [4]) it was 63%; in test [2] (setting [5]), 32%.
For `COc1cc(C(=O)N2CC[C@H](NC(=O)c3ccccc3OC(F)(F)F)c3c2cnn3C(C)C)cnc1OC` [Example 162A, N-((7S)-4-((5,6-Dimethoxypyridin-3-yl)carbonyl)-1-isopropyl-4,5,6,7-tetrahydro-1H-pyrazolo[4,3-b]pyridin-7-yl)-2-(trifluoromethoxy)benzamide], in test [1], the inhibition at 1 µM turned out to be 56%. Further, the “T/C (%)” value was 52% in test [2] (setting [4]) and 38% in test [2] (setting [5]).
With `COc1cc(C(=O)N2CC[C@@H](NC(=O)c3cc(C4CC4)nn3C)[C@@H](c3ccccc3)C2)cc2nccnc12` [Example 330B, 3-cyclopropyl-N-((3S,4R)-1-((8-methoxyquinoxalin-6-yl)carbonyl)-3-phenylpiperidin-4-yl)-1-methyl-1H-pyrazole-5-carboxamide], the figures for the inhibition at 1 µM in test [3] and in test [1] were 102% and 49%, respectively.
As to `Cc1nn(C)c(Cl)c1C(=O)N[C@@H]1CCN(C(=O)c2cc(Cl)c3ncc(C)n3c2)C[C@@H]1c1ccccc1` [Example 342B, 5-chloro-N-((3S,4R)-1-((8-chloro-3-methylimidazo[1,2-a]pyridin-6-yl)carbonyl)-3-phenylpiperidin-4-yl)-1,3-dimethyl-1H-pyrazole-4-carboxamide], the values for the inhibition at 1 µM in test [3] and in test [1] were 101% and 51%, respectively.
Turning to `Cc1nn(C)c(Cl)c1C(=O)N[C@@H]1CCN(C(=O)c2cc(C)c3ncc(C)n3c2)C[C@@H]1c1ccccc1` [Example 344B, 5-chloro-N-((3S,4R)-1-((3,8-dimethylimidazo[1,2-a]pyridin-6-yl)carbonyl)-3-phenylpiperidin-4-yl)-1,3-dimethyl-1H-pyrazole-4-carboxamide], the inhibition at 1 µM was 103% in test [3] and 51% in test [1].
Take `COc1cc(C(=O)N2CC[C@@H](NC(=O)c3c(C)nn(C)c3Cl)[C@@H](c3ccccc3)C2)cc2nccnc12` [Example 345B, 5-chloro-N-((3S,4R)-1-((8-methoxyquinoxalin-6-yl)carbonyl)-3-phenylpiperidin-4-yl)-1,3-dimethyl-1H-pyrazole-4-carboxamide]: the values for the inhibition at 1 µM in test [3] and in test [1] were 102% and 48%, respectively.
As for `COc1cc(C(=O)N2CC[C@@H](NC(=O)c3cc(C(F)(F)F)nn3C)[C@@H](c3ccc(F)cc3)C2)cc2nccnc12` [Example 352B, N-((3S,4R)-3-(4-fluorophenyl)-1-((8-methoxyquinoxalin-6-yl)carbonyl)piperidin-4-yl)-1-methyl-3-(trifluoromethyl)-1H-pyrazole-5-carboxamide], the values for the inhibition at 1 µM in test [3] and in test [1] were 102% and 50%, respectively.
`COc1cc(C(=O)N2CC[C@@H](NC(=O)c3ccccc3OC(F)F)[C@H](c3ccc(F)cc3)C2)cnc1OC` [Example 361B, 2-(difluoromethoxy)-N-((3R,4R)-1-((5,6-dimethoxypyridin-3-yl)carbonyl)-3-(4-fluorophenyl)piperidin-4-yl)benzamide]: the inhibition at 1 µM in test [3] came out at 102%; in test [1], 45%.
In the case of `COc1cc(C(=O)N2CC[C@@H](NC(=O)c3cc(C(F)(F)F)nn3C)[C@@H](c3ccccc3)C2)cc2nccnc12` [Example 412B, N-((3S,4R)-1-((8-Methoxyquinoxalin-6-yl)carbonyl)-3-phenylpiperidin-4-yl)-1-methyl-3-(trifluoromethyl)-1H-pyrazole-5-carboxamide], the inhibition at 1 µM came out at 102% in test [3] and 47% in test [1].
